Measurements published in US20250018052A1, “ANTI-HER3 ANTIBODY DRUG CONJUGATE, COMPOSITION THEREOF, AND USE THEREOF” (CHIA TAI TIANQING PHARMACEUTICAL GROUP CO., LTD., priority 2021, published 2025).

Assays:
[1] = system: BT474 cells with high HER3 expression level; experiment: Cell killing activity (CellTiter-Glo), BT474; format: cell-based; details: cultured for 96 h, 120 h, or 144 h
Description: (§1) Cells in the logarithmic growth phase were added to a 96-well plate at 100 μL/well, and the cell density was 1×10^4/mL or […]. Adherence culture was carried out at 37° C. and 5% CO2 overnight. Sample preparation: the patritumab-eribulin conjugates were each formulated into test samples with a basal medium containing 10% FBS (initial concentration of 5 μg/mL, 5-fold gradient dilution, nine gradients). Cells subjected to overnight adherence culture were taken out. For the experimental groups, the diluted test sample was added at 50 μL/well, and for the control group, the basal medium containing 10% FBS was added at 50 µL/well. The cells were then cultured for 96 h, 120 h, or 144 h, and then a CellTiter-Glo Luminescent Cell kit (Promega, Cat No.: G7572) was used for assay. The 96-well plate was taken out, the CTG detection solution (Promega. Cat No.: G7572) was added at 75 μL/well, and the mixture was well mixed by shaking and incubated at room temperature in the dark for 10 min. Then 180 μL of solution was pipetted from each well and transferred to an opaque white plate, bubbles were removed, chemiluminescence values were read, and killing rates were calculated.
(§2) Data were analyzed using Graphpad Prism5.

[2] = system: HCC1569 cells with high HER3 expression level; experiment: Cell killing activity (CellTiter-Glo), HCC1569; format: cell-based; details: cultured for 96 h, 120 h, or 144 h
Description: as §1, §2

[3] = system: SKBR3 cells with medium HER3 expression level; experiment: Cell killing activity (CellTiter-Glo), SKBR3; format: cell-based; details: cultured for 96 h, 120 h, or 144 h
Description: as §1, §2

[4] = system: NCI-N87 cells with medium HER3 expression level; experiment: Cell killing activity (CellTiter-Glo), NCI-N87; format: cell-based; details: cultured for 96 h, 120 h, or 144 h
Description: as §1, §2

[5] = system: JIMT-1 human breast cancer cells; experiment: Nude mouse subcutaneous xenograft tumor model of JIMT-1 human breast cancer cells; format: in vivo, nude mice; details: 3 mg/kg, tail vein injection, Q1W, d21; for Tumor growth inhibition rate 1-T/C: from relative tumor volume; for Tumor inhibition rate TGI: from tumor weight
Description: The in vivo efficacy of the patritumab-eribulin conjugates prepared in Example 4 above was evaluated by the nude mouse subcutaneous xenograft tumor models of JIMT-1 human breast cancer cells, a trastuzumab-resistant cell strain.
SPF-grade female nude mice (from Changzhou Cavens Laboratory Animal Ltd.) were inoculated subcutaneously at the right side armpit with 2×10^6 JIMT-1 cells per mouse. When the mean tumor volume reached […], the animals were divided into 5 groups of 6, and the specific grouping and administration regimen are shown in Table 6.
The day of grouping was do, and the tail vein administration was performed at d1 after grouping. The tumor volume was measured 2-3 times a week, and meanwhile, the mice were weighed and the data were recorded; the general behavior of the mice was observed and recorded every day. After the experiment was completed, the tumors were removed, weighed, and photographed.

[6] = system: MCF-7 cells with high HER3 expression level; experiment: Cell killing activity (CellTiter-Glo), MCF-7; format: cell-based; details: cultured for 96 h, 120 h, or 144 h
Description: as §1, §2

[7] = system: JIMT-1 cells with medium HER3 expression level; experiment: Cell killing activity (CellTiter-Glo), JIMT-1; format: cell-based, human; details: cultured for 96 h, 120 h, or 144 h
Description: as §1, §2

[8] = system: MDA-MB-468 cells with medium HER3 expression level; experiment: Cell killing activity (CellTiter-Glo), MDA-MB-468; format: cell-based; details: cultured for 96 h, 120 h, or 144 h
Description: as §1, §2

## Patritumab-DDDXd-D8: patritumab-DDDXd conjugate (MC-GGFG-DDDXd, deuterated MC-GGFG-DXd) with a DAR of 7.9, used as control [reference compound]
[1]
  EC50: 10400 pM
[2]
  EC50: 18300 pM
[3]
  EC50: 57800 pM
[4]
  EC50: 371 pM
[5]
  Tumor growth inhibition rate 1-T/C: 24.4%
  Tumor inhibition rate TGI: 26.6%

## Patritumab-eribulin-D2: patritumab-eribulin conjugate (MC-GGFG-eribulin linker-payload) with a DAR of 2.6
[1]
  EC50: 93.5 pM
[6]
  EC50: 1170 pM
[2]
  EC50: 3600 pM
[3]
  EC50: 194 pM
[7]
  EC50: 10500 pM
[8]
  EC50: 12100 pM
[5]
  Tumor growth inhibition rate 1-T/C: 36.6%
  Tumor inhibition rate TGI: 41.1%

## Patritumab-eribulin-D4: patritumab-eribulin conjugate (MC-GGFG-eribulin linker-payload) with DAR of 4.0-4.2
[1]
  EC50: 39.8 pM
[6]
  EC50: 99.4 pM
[2]
  EC50: 778 pM
[3]
  EC50: 43 pM
[4]
  EC50: 13900 pM
[7]
  EC50: 3270 pM
[8]
  EC50: 1410 pM
[5]
  Tumor growth inhibition rate 1-T/C: 65.9%
  Tumor inhibition rate TGI: 68.9%

## Patritumab-eribulin-D8: patritumab-eribulin conjugate (MC-GGFG-eribulin linker-payload) with a DAR of 7.6
[1]
  EC50: 18.1 pM
[6]
  EC50: 36.1 pM
[2]
  EC50: 246 pM
[3]
  EC50: 23.2 pM
[4]
  EC50: 690 pM
[7]
  EC50: 946 pM
[8]
  EC50: 321 pM
[5]
  Tumor growth inhibition rate 1-T/C: 82.9%
  Tumor inhibition rate TGI: 84.3%
